This test relates to IL-6 secretion. Briefly: Bradykinin B1 receptor agonist-induced secretion of IL-6 in human IMR-90 cells. In kind it is cell-based. Particulars: 0.1 μM Lys-[Des-Arg9]Bradykinin and 0.1 μM Sar-[D-Phe8]-des-Arg9-Bradykinin, 5 hours. The source says: Inhibitory Activity on Bradykinin B1 Receptor Agonist-Induced Secretion of IL-6 and IL-8 in Human IMR-90 Cells
The effect of the compound examples on secretion of the cytokine IL-6 and IL-8 was investigated in the human foetal lung fibroblast IMR-90 cell line. Here the induction of the cytokine secretion was induced by the Bradykinin B1 receptor agonists Lys-[Des-Arg9]Bradykinin (CAS 71800-36-7, Tocris Bioscience) and Sar-[D-Phe8]-des-Arg9-Bradykinin (CAS 126959-88-4, Tocris Bioscience) leading to the activation of the Bradykinin B1-driven signalling pathway. […]
IMR-90 cells were cultured in Eagle's Minimum Essential Medium (EMEM) containing 2 mM L-glutamine, 1 g/L glucose, 1.5 g/L NaHCO3, 1 mM sodium pyruvate and non-essential amino acids (ATCC, 30-2003™) supplemented with 10% FBS (Biochrom, 50615) and 50 U/mL Penicillin, 50 μg/mL Streptomycin (PAA, P11-010). […] The compound examples were serially diluted in 100% DMSO and evaluated at 8 different concentrations within the range of 3 nM and 10 μM and a final DMSO concentration of 0.4%. […] The amount of IL-6 and IL-8 in the supernatant was determined using the Human ProInflammatory Panel II (4-Plex) (MSD, K15025B) according to manufacturer's instruction. […] The cell viability was measured using the CellTiter-Glo Luminescent Assay (Promega, G7571) following the manufacturers protocol. […]

The term IC50 denotes the concentration needed to halve the response being measured. A lower IC50 goes with inhibition by little substance.

As to `O=C(O)c1cc(NC(=O)C2CC2c2ccc(Cl)cc2)cc(F)c1-c1cnn(C2CCC2)c1` (racemic) [Example 2, 5-({[2-(4-chlorophenyl)cyclopropyl]carbonyl}amino)-2-(1-cyclobutyl-1H-pyrazol-4-yl)-3-fluorobenzoic acid], the IC50 was determined as 322 nM.

The values above are taken from patent US20190177279A1, “CARBOXYLIC ACID AROMATIC 1,2-CYCLOPROPYLAMIDES” (Bayer Pharma Aktiengesellschaft, priority 2017, published 2019).
